Results from US8685443B2, “Sequestering subunit and related compositions and methods” (Alpharma Pharmaceuticals LLC, priority 2002, dated 2014).
Counter-ions that a name gives are not always drawn.

What was measured:
[1] = in comparison to a 15 mg dose of hydrocodone
[2] = hydrochloride salt; cited from earlier work
opioid receptors = settings: after oral administration; cited from earlier work
mu over delta sites = settings: cited from earlier work

Molecule	Calculated Dose (equianalgesic dose) [1]	also measured
CN1CC[C@]23CCCC[C@H]2[C@H]1Cc1ccc(O)cc13 [Levorphanol]	1.8 mg	–
O=C1CC[C@@]2(O)[C@H]3Cc4ccc(O)c5c4[C@@]2(CCN3CC2CC2)[C@H]1O5 [hydrochloride salt of naltrexone, naltrexone]	–	solubility in water [2]: about 100 mg/cc
Meperidine	135.0 mg	–
C[C@H]1[C@H]2Cc3ccc(O)cc3[C@]1(C)CCN2CC1CC1 [cyclazocine]	–	duration of effect (opioid receptors): ~24 h
COc1ccc2c3c1OC1C(=O)CC[C@@]4(O)[C@@H](C2)N(C)CC[C@]314 (stereo partly drawn) [Oxycodone, 4,5-epoxy-14-hydroxy-3-methoxy-17-methylmorphinan-6-one]	13.5 mg	–
CCC(=O)C(CC(C)N(C)C)(c1ccccc1)c1ccccc1 (stereo not drawn) [Methadone]	9.0 mg	–
COc1ccc2c3c1O[C@H]1[C@@H](O)C=C[C@H]4[C@@H](C2)N(C)CC[C@@]341 [Codeine]	90.0 mg	–
O=C1CC[C@@]2(O)[C@H]3Cc4ccc(O)c5c4[C@@]2(CCN3CC2CC2)[C@H]1O5 [naltrexone]	–	blocking action, mu over delta sites (mu over delta sites): strong preferential blocking action against mu over delta sites
COc1ccc2c3c1OC1C(=O)CC[C@H]4[C@@H](C2)N(C)CC[C@]314 (stereo partly drawn) [Hydrocodone, 4,5-epoxy-3-methoxy-17-methylmorphinan-6-one]	15.0 mg	–
